Assays:
[1] = Measurement of Log P values by HPLC on reversed phase columns (EEC directive 79/831 Annex V.A8); type: physicochemical; conditions: reversed phase HPLC column, method [a]: LC-UV, acidic range, 0.1% formic acid in water and acetonitrile as eluent
Method in brief: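 Log P derived from retention on reversed-phase columns (EEC directive 79/831 Annex V.A8), LC-UV, acetonitrile gradient 10% to 95% against water containing 0.1% formic acid, 0.001 M ammonium acetate, or 0.1% phosphoric acid; several values per method separated by "+".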

Alternaria brassicae = test: In vivo preventive test on Alternaria brassicae (leaf spot on radish or cabbage); conditions: 500 ppm of active ingredient, preventive spray on radish or cabbage, evaluated 3 to 4 days after inoculation, read-out: efficacy
Method in brief: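 Protective spray on young radish or cabbage: actives in water diluted from DMSO/acetone/Tween 80, with solvent-only controls. Leaves were challenged after 24 h with a spore suspension, and plants were held at 100% RH, 20 °C for 3 to 4 days.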

Pyrenophora teres [2] = test: In vivo preventive test on Pyrenophora teres (net blotch on barley); conditions: 240 h, 500 ppm of active ingredient, preventive spray on barley, evaluated 10 days after inoculation, read-out: efficacy
Method in brief: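 Net blotch spores were sprayed onto barley leaves one day after foliar treatment with water-diluted DMSO/acetone/Tween 80 formulations (solvent-only controls). Plants were kept at 20° C: first 48 hours at 100% relative humidity, then 8 days at 70-80%.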

Sphaerotheca fuliginea = test: In vivo preventive test on Sphaerotheca fuliginea (powdery mildew on cucurbits); conditions: Podosphaera fuliginea, 192 h; 500 ppm of active ingredient; preventive spray on gherkin; evaluated 8 days after inoculation; read-out: efficacy
Method in brief: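 This is a preventive spray test on gherkin seedlings, with compound formulated in DMSO/acetone/Tween 80 in water and solvent-only controls. Spore inoculation followed one day after treatment. Incubation lasted 8 days at 20 °C, 70–80% RH.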

[3] = test system: Colletotrichum lindemuthianum; test: In vivo preventive test on Colletotrichum lindemuthianum (leaf spot on bean); conditions: 168 h, 500 ppm of active ingredient, preventive spray on bean, evaluated 7 days after inoculation, read-out: efficacy
Method in brief: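 Young bean plants sprayed with compound in DMSO/acetone/Tween 80 diluted in water; solvent-only controls. Inoculated 24 h later with C. lindemuthianum spore suspension, then kept 24 h at 20 °C/100% RH and 6 days at 20 °C/90% RH.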

Alternaria alternata = Alternaria alternata in vitro cell test; type: cell-based; conditions: 120 h, 20 ppm of active ingredient, liquid culture, 5 days incubation, spectrometric measurement of mycelium growth, read-out: efficacy (inhibition of fungal growth)
Method in brief: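 Spectrometric readout of mycelial growth after 5-day incubation gauged compound effects on spore germination and growth of A. alternata in liquid medium. Compounds were delivered in DMSO at ≤1% final. Absorbance was compared with untreated controls to give inhibition.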

[4] = test system: Colletotrichum lindemuthianum; test: B-8. Colletotrichum lindemuthianum in vitro cell test; type: cell-based; conditions: 144 h, 20 ppm of active ingredient, 6 days incubation, liquid culture, absorbance, read-out: efficacy (inhibition of fungal growth)
Method in brief: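 Liquid-culture germination/growth test: compounds in ≤1% final DMSO were added to spore-containing medium. Fungal growth was quantified spectrophotometrically after 6 days of incubation and expressed as inhibition versus untreated controls.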

Septoria tritici = test: B-9. Septoria tritici in vitro cell test; type: cell-based; conditions: Zymoseptoria tritici, 168 h; 20 ppm of active ingredient; 7 days incubation; liquid culture, absorbance; read-out: efficacy (inhibition of fungal growth)
Experimental: B-9. Septoria tritici In Vitro Cell Test [table] Fungicides were solubilized in DMSO and the solution used to prepare the required range of concentrations. The final concentration of DMSO used in the assay was ≤1%. A spore suspension of S. tritici was prepared and diluted to the desired spore density. Fungicides were evaluated for their ability to inhibit spore germination and mycelium growth in liquid culture assay. The compounds were added in the desired concentration to the culture medium with spores. After 7 days incubation, fungi-toxicity of compounds was determined by spectrometric measurement of mycelium growth. Inhibition of fungal growth was determined by comparing the absorbance values in wells containing the fungicides with the absorbance in control wells without fungicides.

Pyrenophora teres [5] = test: B-10. Pyrenophora teres in vitro cell test; type: cell-based; conditions: 144 h, 20 ppm of active ingredient, 6 days incubation, liquid culture, absorbance, read-out: efficacy (inhibition of fungal growth)
Method in brief: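 Liquid-culture assay on a P. teres spore suspension with compounds added to the medium from DMSO solutions, final DMSO ≤1%. Mycelium growth read spectrometrically after 6 days. Inhibition calculated from absorbance against untreated control wells.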

Botrytis cinerea [6] = test: B-11. Botrytis cinerea in vitro cell test; type: cell-based; conditions: 144 h, 20 ppm of active ingredient, 6 days incubation, liquid culture, absorbance, read-out: efficacy (inhibition of fungal growth)
Method in brief: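 B. cinerea spores were grown in liquid culture with compound (DMSO ≤1% final). Mycelium growth was measured spectrometrically after 6 days, with inhibition taken as absorbance relative to untreated control wells.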

Botrytis cinerea [7] = test: In vivo preventive test on Botrytis cinerea (grey mould); conditions: 500 ppm of active ingredient, preventive spray on gherkin or cabbage, evaluated 4 to 5 days after inoculation, read-out: efficacy
Method in brief: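 Preventive spray on cabbage or gherkin seedlings, with compound formulated in DMSO/acetone/Tween 80 and water-diluted, preceded spore inoculation by 24 hours. Cabbage was held 4 to 5 days at 20° C., 100% relative humidity; gherkin 4 to 5 days at 17° C., 90% relative humidity.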

Row | SMILES | chromatographic logP [1] | pest or weed control at 500 ppm (Alternaria brassicae) [%] | pest or weed control at 500 ppm (Pyrenophora teres [2]) [%] | pest or weed control at 500 ppm (Sphaerotheca fuliginea) [%] | pest or weed control at 500 ppm [3] [%] | inhibition at 20 ppm (Alternaria alternata) [%] | inhibition at 20 ppm [4] [%] | inhibition at 20 ppm (Septoria tritici) [%] | inhibition at 20 ppm (Pyrenophora teres [5]) [%] | inhibition at 20 ppm (Botrytis cinerea [6]) [%] | pest or weed control at 500 ppm (Botrytis cinerea [7]) [%]
1 | Cc1ccc([C@@H](F)CNC(=O)c2c(Oc3cccc(C(F)(F)F)c3)nnc3c2OCC(C)(C)O3)c(C)c1 (racemic) [I-155] | 3.91 | 90 to 100 | 90 to 100 | 90 to 100 | 90 to 100 | 90 to 100 | 90 to 100 | 90 to 100 | 90 to 100 | 90 to 100 | 
2 | Cc1cc(Br)ccc1C(F)(F)CNC(=O)c1c(Oc2cccc(C3CC3)c2F)nnc2c1CCCC2 [I-153] |  | 90 to 100 | 90 to 100 | 90 to 100 | 90 to 100 | 90 to 100 | 90 to 100 | 90 to 100 | 90 to 100 | 90 to 100 | 
3 | O=C(NCC(F)(F)c1ccc(Cl)cc1Cl)c1c(Oc2cccc(C(F)F)c2)nnc2c1CCCC2 [I-191] | 3.73 |  | 90 to 100 | 90 to 100 | 90 to 100 | 90 to 100 | 90 to 100 | 90 to 100 | 90 to 100 | 90 to 100 | 90 to 100
4 | O=C(NCC(F)(F)c1ccc(Cl)cc1Cl)c1c(Oc2cccc(Cl)c2)nnc2c1CCCC2 [I-192] | 4 |  | 90 to 100 | 90 to 100 | 90 to 100 | 90 to 100 | 90 to 100 | 90 to 100 | 90 to 100 | 90 to 100 | 90 to 100
5 | O=C(NCC(F)(F)c1ccc(Cl)cc1Cl)c1c(Oc2cccc(Cl)c2F)nnc2c1CCCC2 [I-194] | 4.05 |  | 90 to 100 | 90 to 100 | 90 to 100 | 90 to 100 | 90 to 100 | 90 to 100 | 90 to 100 | 90 to 100 | 90 to 100
6 | O=C(NCC(F)(F)c1ccc(Cl)cc1Cl)c1c(Oc2cccc(C3CC3)c2F)nnc2c1CCCC2 [I-196] | 4.28 |  | 90 to 100 | 90 to 100 | 90 to 100 | 90 to 100 | 90 to 100 | 90 to 100 | 90 to 100 | 90 to 100 | 90 to 100
7 | O=C(NCC(F)(F)c1ccc(Cl)cc1Cl)c1c(Oc2cccc(Cl)c2F)nnc2c1CCC2 [I-201] | 3.94 |  | 90 to 100 | 90 to 100 | 90 to 100 | 90 to 100 | 90 to 100 | 90 to 100 | 90 to 100 | 90 to 100 | 90 to 100
8 | O=C(NCC(F)(F)c1ccc(Br)cc1Cl)c1c(Oc2cccc(C(F)F)c2)nnc2c1CCCC2 [I-208] | 3.84 |  | 90 to 100 | 90 to 100 | 90 to 100 | 90 to 100 | 90 to 100 | 90 to 100 | 90 to 100 | 90 to 100 | 90 to 100
9 | O=C(NCC(F)(F)c1ccc(Br)cc1Cl)c1c(Oc2cccc(Cl)c2)nnc2c1CCCC2 [I-209] | 4.11 |  | 90 to 100 | 90 to 100 | 90 to 100 | 90 to 100 | 90 to 100 | 80 to 89 | 90 to 100 | 90 to 100 | 90 to 100
10 | O=C(NCC(F)(F)c1ccc(Br)cc1Cl)c1c(Oc2cccc(Cl)c2F)nnc2c1CCCC2 [I-210] | 4.4 |  | 90 to 100 | 90 to 100 | 90 to 100 | 90 to 100 | 90 to 100 | 90 to 100 | 90 to 100 | 90 to 100 | 90 to 100
11 | O=C(NCC(F)(F)c1ccc(Br)cc1Cl)c1c(Oc2cccc(C3CC3)c2F)nnc2c1CCCC2 [I-211] | 4.69 |  | 90 to 100 | 90 to 100 | 90 to 100 | 90 to 100 | 90 to 100 | 90 to 100 | 90 to 100 | 90 to 100 | 90 to 100

Second part, led by results:

Row | chromatographic logP [1] | SMILES | pest or weed control at 500 ppm (Alternaria brassicae) [%] | pest or weed control at 500 ppm (Pyrenophora teres [2]) [%] | pest or weed control at 500 ppm (Sphaerotheca fuliginea) [%] | pest or weed control at 500 ppm [3] [%] | inhibition at 20 ppm (Alternaria alternata) [%] | inhibition at 20 ppm [4] [%] | inhibition at 20 ppm (Septoria tritici) [%] | inhibition at 20 ppm (Pyrenophora teres [5]) [%] | inhibition at 20 ppm (Botrytis cinerea [6]) [%] | pest or weed control at 500 ppm (Botrytis cinerea [7]) [%]
12 | 4.23 | O=C(NCC(F)(F)c1ccc(Cl)cc1Cl)c1c(Oc2cccc(C(F)(F)F)c2)nnc2c1CCCC2 [I-189] |  | 80 to 89 | 90 to 100 | 90 to 100 | 90 to 100 | 90 to 100 | 90 to 100 | 90 to 100 | 90 to 100 | 90 to 100
13 | 4.05 | O=C(NCC(F)(F)c1ccc(Cl)cc1Cl)c1c(Oc2cccc(C(F)(F)F)c2)nnc2c1CCC2 [I-198] |  | 80 to 89 | 90 to 100 | 90 to 100 | 90 to 100 | 90 to 100 | 90 to 100 | 90 to 100 | 90 to 100 | 90 to 100
14 | 4.28 | Cc1cc(Br)ccc1C(F)(F)CNC(=O)c1c(Oc2cccc(C(F)(F)F)c2)nnc2c1CCCC2 [I-202] |  | 90 to 100 | 90 to 100 | 90 to 100 | 90 to 100 | 90 to 100 | 90 to 100 | 90 to 100 | 90 to 100 | 90 to 100
15 | 4.17 | Cc1cc(Br)ccc1C(F)(F)CNC(=O)c1c(Oc2cccc(C(F)(F)F)c2)nnc2c1CCC2 [I-206] |  | 90 to 100 | 90 to 100 | 90 to 100 | 90 to 100 | 90 to 100 | 90 to 100 | 90 to 100 | 90 to 100 | 90 to 100
16 | 4.28 | O=C(NCC(F)(F)c1ccc(Br)cc1Cl)c1c(Oc2cccc(C(F)(F)F)c2)nnc2c1CCCC2 [I-207] |  | 90 to 100 | 90 to 100 | 90 to 100 | 90 to 100 | 90 to 100 | 90 to 100 | 90 to 100 | 90 to 100 | 90 to 100

— patent US20230192617A1, “AZABICYCLIC(THIO)AMIDES AS FUNGICIDAL COMPOUNDS” (Bayer CropScience Aktiengesellschaft, priority 2020, published 2023)
